Test results reported in paper PMC6009876, “Introduction of pyrrolidineoxy or piperidineamino group at the 4-position of quinazoline leading to novel quinazoline-based phosphoinositide 3-kinase delta (PI3Kδ) inhibitors” (Journal of Enzyme Inhibition and Medicinal Chemistry, 2018).
Like-named read-outs stand apart in the source and are kept apart here.

Assays:
PI3Kδ [1] = target: T1, PI3Kδ (Homo sapiens, UniProt O00329); test: PI3Kδ inhibitory activity; type: biochemical; details: mean of at least two experiments; for inhibition at 0.1 µM: at the concentration of 100 nM
PI3Kα = PI3Kα (Homo sapiens, UniProt P42336); test: PI3K isoform selectivity, p110α; type: biochemical; details: for IC50: mean of at least two experiments
Raji = test: Anti-proliferative activity, MTT reduction method; type: cell-based; details: Homo sapiens, mean of at least two experiments
Ramos = test: Anti-proliferative activity, MTT reduction method; type: cell-based; details: Homo sapiens, mean of at least two experiments
PI3Kβ = PI3Kβ (Homo sapiens, UniProt P42338); test: PI3K isoform selectivity, p110β; type: biochemical; details: for IC50: mean of at least two experiments
RPMI-8226 = test: Anti-proliferative activity, MTT reduction method; type: cell-based; details: Homo sapiens, mean of at least two experiments
PI3Kγ = PI3Kγ (Homo sapiens, UniProt P48736); test: PI3K isoform selectivity, p110γ; type: biochemical; details: for IC50: mean of at least two experiments
SU-DHL-6 = test: Anti-proliferative activity, CCK-8 method; type: cell-based; details: Homo sapiens, mean of at least two experiments
PI3Kδ [2] = target: T1, PI3Kδ; details: cited from earlier work
[3] = Table 3 isoform selectivity, read-out: p110δ IC50

PI3Kβ, sequence (P42338 whole entry, species assumed, canonical isoform): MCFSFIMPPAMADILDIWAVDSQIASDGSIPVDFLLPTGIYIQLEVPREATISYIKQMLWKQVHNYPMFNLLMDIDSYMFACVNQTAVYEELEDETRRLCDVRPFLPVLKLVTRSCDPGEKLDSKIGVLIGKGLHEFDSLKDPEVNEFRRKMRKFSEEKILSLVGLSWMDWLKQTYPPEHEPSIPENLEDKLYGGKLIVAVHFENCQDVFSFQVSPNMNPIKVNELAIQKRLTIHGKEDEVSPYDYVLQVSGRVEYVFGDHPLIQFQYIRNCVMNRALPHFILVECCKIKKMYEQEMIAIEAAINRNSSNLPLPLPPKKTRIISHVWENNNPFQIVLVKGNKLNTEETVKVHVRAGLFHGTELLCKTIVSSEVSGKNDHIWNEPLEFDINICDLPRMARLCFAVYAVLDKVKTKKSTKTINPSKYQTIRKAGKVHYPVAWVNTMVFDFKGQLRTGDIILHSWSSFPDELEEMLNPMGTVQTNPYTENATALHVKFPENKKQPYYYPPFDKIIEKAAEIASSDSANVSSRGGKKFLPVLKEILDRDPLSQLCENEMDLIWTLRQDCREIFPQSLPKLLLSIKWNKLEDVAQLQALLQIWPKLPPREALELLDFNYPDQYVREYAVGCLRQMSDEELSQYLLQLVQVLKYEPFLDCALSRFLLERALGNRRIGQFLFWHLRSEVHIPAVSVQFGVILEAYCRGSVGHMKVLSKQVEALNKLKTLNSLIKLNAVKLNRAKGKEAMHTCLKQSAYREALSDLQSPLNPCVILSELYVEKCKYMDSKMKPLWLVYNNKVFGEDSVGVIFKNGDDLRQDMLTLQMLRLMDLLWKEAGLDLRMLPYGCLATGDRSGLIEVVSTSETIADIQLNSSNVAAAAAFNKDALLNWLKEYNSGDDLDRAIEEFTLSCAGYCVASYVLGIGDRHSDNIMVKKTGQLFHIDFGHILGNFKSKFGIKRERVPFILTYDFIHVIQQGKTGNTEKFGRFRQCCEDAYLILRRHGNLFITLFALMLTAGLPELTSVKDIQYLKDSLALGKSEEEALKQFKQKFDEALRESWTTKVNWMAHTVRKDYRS
PI3Kβ, sequence (P27986 whole entry partner, species assumed, canonical isoform): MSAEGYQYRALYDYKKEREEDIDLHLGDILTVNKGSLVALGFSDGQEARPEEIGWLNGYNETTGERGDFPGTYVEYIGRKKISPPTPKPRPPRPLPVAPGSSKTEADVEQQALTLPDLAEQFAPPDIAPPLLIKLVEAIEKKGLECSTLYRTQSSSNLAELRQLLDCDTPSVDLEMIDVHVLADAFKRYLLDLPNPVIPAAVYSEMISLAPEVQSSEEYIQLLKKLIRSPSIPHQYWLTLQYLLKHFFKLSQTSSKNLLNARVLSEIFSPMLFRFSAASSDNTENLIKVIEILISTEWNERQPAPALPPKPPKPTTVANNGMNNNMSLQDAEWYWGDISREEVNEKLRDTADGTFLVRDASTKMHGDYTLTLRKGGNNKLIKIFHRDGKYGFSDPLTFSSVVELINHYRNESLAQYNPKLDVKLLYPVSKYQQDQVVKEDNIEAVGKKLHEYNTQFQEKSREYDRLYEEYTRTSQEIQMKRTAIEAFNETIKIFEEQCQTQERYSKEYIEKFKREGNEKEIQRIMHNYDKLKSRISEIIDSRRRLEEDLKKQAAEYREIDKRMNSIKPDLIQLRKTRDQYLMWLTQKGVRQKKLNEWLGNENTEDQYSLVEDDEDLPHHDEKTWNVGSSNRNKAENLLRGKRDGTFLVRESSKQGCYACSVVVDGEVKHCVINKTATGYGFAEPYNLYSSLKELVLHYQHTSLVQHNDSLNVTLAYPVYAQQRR
T1 sequence (O00329 whole entry, canonical isoform): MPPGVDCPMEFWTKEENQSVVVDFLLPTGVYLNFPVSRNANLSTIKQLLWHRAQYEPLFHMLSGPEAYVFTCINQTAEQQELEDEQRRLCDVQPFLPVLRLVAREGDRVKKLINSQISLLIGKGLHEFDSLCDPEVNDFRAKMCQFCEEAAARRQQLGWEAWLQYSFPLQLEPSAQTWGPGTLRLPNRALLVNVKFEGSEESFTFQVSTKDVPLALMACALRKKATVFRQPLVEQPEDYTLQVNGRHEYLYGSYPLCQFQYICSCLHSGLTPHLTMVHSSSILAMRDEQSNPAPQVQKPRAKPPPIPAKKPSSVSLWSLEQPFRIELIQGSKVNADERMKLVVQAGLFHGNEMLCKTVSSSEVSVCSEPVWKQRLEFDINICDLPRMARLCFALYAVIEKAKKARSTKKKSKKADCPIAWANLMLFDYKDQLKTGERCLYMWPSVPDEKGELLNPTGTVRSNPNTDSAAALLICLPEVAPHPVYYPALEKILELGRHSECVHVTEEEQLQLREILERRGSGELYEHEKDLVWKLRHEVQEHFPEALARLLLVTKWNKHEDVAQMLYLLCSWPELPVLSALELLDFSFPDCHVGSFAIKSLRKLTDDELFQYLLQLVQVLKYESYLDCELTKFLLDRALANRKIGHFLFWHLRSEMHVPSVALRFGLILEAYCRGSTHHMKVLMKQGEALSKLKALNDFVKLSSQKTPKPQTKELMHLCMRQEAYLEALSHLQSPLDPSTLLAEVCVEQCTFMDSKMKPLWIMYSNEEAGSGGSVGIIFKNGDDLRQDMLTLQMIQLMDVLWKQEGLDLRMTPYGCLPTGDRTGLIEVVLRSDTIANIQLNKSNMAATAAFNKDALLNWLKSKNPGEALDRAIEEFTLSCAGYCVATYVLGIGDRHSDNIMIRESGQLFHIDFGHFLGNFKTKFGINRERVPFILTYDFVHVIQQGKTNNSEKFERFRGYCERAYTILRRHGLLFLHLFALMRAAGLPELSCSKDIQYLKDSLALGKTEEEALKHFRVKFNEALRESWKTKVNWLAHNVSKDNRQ
T1 sequence (P27986 whole entry partner, canonical isoform): as the sequence (P27986 whole entry partner, species assumed, canonical isoform) above
PI3Kγ, sequence (P48736 whole entry, species assumed, canonical isoform): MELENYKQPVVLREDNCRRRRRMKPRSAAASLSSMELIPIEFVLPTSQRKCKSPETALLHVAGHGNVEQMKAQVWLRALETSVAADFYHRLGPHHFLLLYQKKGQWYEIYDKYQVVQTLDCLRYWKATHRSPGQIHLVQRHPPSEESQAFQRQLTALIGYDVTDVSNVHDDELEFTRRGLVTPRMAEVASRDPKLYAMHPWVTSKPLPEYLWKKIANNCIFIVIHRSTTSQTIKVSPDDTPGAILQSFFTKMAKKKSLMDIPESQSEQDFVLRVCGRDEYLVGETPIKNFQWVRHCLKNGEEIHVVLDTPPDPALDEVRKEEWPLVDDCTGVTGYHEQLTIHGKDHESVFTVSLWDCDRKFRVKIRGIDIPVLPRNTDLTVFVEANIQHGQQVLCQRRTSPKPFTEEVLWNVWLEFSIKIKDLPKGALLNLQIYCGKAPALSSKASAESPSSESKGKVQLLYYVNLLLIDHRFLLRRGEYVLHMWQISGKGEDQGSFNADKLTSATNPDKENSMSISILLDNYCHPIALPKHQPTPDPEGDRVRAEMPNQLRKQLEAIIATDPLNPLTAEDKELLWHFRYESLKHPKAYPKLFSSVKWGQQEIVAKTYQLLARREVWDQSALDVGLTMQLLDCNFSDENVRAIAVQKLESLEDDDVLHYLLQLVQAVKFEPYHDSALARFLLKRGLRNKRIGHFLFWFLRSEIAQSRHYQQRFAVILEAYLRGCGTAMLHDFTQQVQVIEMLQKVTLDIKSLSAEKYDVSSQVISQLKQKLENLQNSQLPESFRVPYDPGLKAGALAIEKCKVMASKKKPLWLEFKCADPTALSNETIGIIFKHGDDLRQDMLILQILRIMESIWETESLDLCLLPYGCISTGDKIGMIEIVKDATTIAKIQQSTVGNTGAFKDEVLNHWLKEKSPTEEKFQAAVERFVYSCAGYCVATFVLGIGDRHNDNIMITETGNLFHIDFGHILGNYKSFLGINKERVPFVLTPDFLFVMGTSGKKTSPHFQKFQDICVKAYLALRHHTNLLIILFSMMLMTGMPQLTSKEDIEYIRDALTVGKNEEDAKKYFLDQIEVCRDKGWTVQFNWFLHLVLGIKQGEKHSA
PI3Kα, sequence (P42336 whole entry, species assumed, canonical isoform): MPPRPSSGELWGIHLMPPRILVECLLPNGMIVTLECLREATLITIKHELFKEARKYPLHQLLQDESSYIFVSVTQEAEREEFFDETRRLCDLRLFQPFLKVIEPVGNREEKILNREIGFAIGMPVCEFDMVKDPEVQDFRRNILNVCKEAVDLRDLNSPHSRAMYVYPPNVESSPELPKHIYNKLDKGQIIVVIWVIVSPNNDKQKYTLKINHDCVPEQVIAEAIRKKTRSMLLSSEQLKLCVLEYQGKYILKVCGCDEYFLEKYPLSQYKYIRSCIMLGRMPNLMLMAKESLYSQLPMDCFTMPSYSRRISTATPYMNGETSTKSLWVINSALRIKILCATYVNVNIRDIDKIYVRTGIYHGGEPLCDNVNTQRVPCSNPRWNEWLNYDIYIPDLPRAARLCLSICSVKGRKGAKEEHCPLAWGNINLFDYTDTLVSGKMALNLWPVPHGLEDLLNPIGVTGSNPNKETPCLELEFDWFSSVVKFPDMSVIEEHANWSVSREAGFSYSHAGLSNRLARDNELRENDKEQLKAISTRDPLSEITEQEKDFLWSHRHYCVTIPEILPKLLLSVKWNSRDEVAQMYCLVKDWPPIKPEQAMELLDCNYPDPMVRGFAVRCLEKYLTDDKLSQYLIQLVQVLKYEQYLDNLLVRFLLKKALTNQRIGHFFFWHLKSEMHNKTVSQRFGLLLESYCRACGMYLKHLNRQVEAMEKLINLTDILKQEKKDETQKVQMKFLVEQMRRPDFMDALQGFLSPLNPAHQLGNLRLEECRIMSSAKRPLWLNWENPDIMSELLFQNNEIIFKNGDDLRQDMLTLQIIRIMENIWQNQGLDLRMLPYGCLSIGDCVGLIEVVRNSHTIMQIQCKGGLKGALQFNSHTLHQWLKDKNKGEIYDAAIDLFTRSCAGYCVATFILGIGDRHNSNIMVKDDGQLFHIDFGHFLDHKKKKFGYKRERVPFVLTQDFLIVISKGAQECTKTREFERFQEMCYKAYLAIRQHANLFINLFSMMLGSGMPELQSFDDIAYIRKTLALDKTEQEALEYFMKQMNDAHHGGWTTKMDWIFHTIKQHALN
PI3Kα, sequence (P27986 whole entry partner, species assumed, canonical isoform): as the sequence (P27986 whole entry partner, species assumed, canonical isoform) above

**Q.** With COc1ccc(-c2ccc3ncnc(O[C@H]4CCN(C(=O)C5CC5)C4)c3c2)cn1 [Compound 12b] as the molecule, how does the inhibition at 0.1 µM (PI3Kδ [1]) read?
**A.** Its inhibition at 0.1 µM is 90%.

**Q.** And the IC50 (PI3Kδ [1]; read-out: PI3Kδ IC50)?
**A.** Its IC50 is 9.3 nM.

**Q.** Which results are given for COc1ccc(-c2ccc3ncnc(O[C@H]4CCN(C(=O)C5CCOCC5)C4)c3c2)cn1 [Compound 12d]?
**A.** PI3Kδ selectivity over PI3Kα (PI3Kα): 11 fold; IC50 (PI3Kα): 50.4 nM; IC50 (Raji): 9810 nM; IC50 (Ramos): 1340 nM; PI3Kδ selectivity over PI3Kβ (PI3Kβ): 131 fold; IC50 (PI3Kβ): 592 nM; IC50 (PI3Kδ [1]; [3]): 4.9 nM; inhibition at 0.1 µM (PI3Kδ [1]): 98%; IC50 (PI3Kδ [1]; read-out: PI3Kδ IC50): 4.9 nM; IC50 (RPMI-8226): 440 nM; PI3Kδ selectivity over PI3Kγ (PI3Kγ): 103 fold; IC50 (PI3Kγ): 468 nM; IC50 (SU-DHL-6): 3230 nM

**Q.** For COc1ccc(-c2ccc3ncnc(O[C@H]4CCN(C(=O)C5CCC5)C4)c3c2)cn1 [Compound 12c], which inhibition at 0.1 µM (PI3Kδ [1]) is on record?
**A.** The inhibition at 0.1 µM was 96%.

**Q.** And the IC50 (PI3Kδ [1]; read-out: PI3Kδ IC50)?
**A.** The IC50 was 6.1 nM.

**Q.** For COc1ccc(-c2ccc3ncnc(N[C@H]4CCCN(C(=O)OC(C)(C)C)C4)c3c2)cn1 [Compound 14a], which inhibition at 0.1 µM (PI3Kδ [1]) is on record?
**A.** The inhibition at 0.1 µM was 51%.

**Q.** What does the source list for CC[C@H](Nc1ncnc2[nH]cnc12)c1nc2cccc(F)c2c(=O)n1-c1ccccc1 [Compound 1, idelalisib, reference compound]?
**A.** IC50 (Raji): 9950 nM; IC50 (Ramos): > 10000 nM; inhibition at 0.1 µM (PI3Kδ [1]): 96%; IC50 (RPMI-8226): 5490 nM; IC50 (SU-DHL-6): 650 nM

**Q.** Which results are given for COc1ccc(-c2ccc3ncnc(N[C@H]4CCCN(C(=O)C5CCC5)C4)c3c2)cn1 [Compound 14c]?
**A.** PI3Kδ selectivity over PI3Kα (PI3Kα): 15 fold; IC50 (PI3Kα): 58.9 nM; PI3Kδ selectivity over PI3Kβ (PI3Kβ): 96 fold; IC50 (PI3Kβ): 376 nM; IC50 (PI3Kδ [1]; [3]): 3.9 nM; inhibition at 0.1 µM (PI3Kδ [1]): 91%; IC50 (PI3Kδ [1]; read-out: PI3Kδ IC50): 3.9 nM; PI3Kδ selectivity over PI3Kγ (PI3Kγ): 31 fold; IC50 (PI3Kγ): 121 nM; IC50 (SU-DHL-6): 1490 nM

**Q.** With COc1ccc(-c2ccc3ncnc(N[C@H]4CCCN(C(=O)C(C)(C)C)C4)c3c2)cn1 [Compound 14f] as the molecule, how does the inhibition at 0.1 µM (PI3Kδ [1]) read?
**A.** Its inhibition at 0.1 µM is 54%.

**Q.** With COc1ccc(-c2ccc3ncnc(N[C@H]4CCCN(C(=O)C5CC5)C4)c3c2)cn1 [Compound 14b] as the molecule, how does the “PI3Kδ selectivity over PI3Kα” value (PI3Kα) read?
**A.** Its value is 12 fold.

**Q.** What about the IC50 (PI3Kα) of the same molecule?
**A.** The IC50 was 36.6 nM.

**Q.** And the IC50 (Raji)?
**A.** The IC50 was 810 nM.

**Q.** And the IC50 (Ramos)?
**A.** Its IC50 is 1340 nM.

**Q.** What about the “PI3Kδ selectivity over PI3Kβ” value (PI3Kβ) of the same molecule?
**A.** Its value is 105 fold.

**Q.** What about the IC50 (PI3Kβ) of the same molecule?
**A.** Its IC50 is 317 nM.

**Q.** What about the IC50 (PI3Kδ [1]; [3]) of the same molecule?
**A.** The IC50 was 3 nM.

**Q.** What about the inhibition at 0.1 µM (PI3Kδ [1]) of the same molecule?
**A.** The inhibition at 0.1 µM was 94%.

**Q.** What about the IC50 (PI3Kδ [1]; read-out: PI3Kδ IC50) of the same molecule?
**A.** Its IC50 is 3 nM.

**Q.** And the IC50 (RPMI-8226)?
**A.** Its IC50 is 8660 nM.

**Q.** What about the “PI3Kδ selectivity over PI3Kγ” value (PI3Kγ) of the same molecule?
**A.** Its value is 34 fold.

**Q.** And the IC50 (PI3Kγ)?
**A.** Its IC50 is 104 nM.

**Q.** And the IC50 (SU-DHL-6)?
**A.** The IC50 was 1040 nM.

**Q.** Which inhibition at 0.1 µM (PI3Kδ [1]) does the source give for COc1ccc(-c2ccc3ncnc(O[C@H]4CCN(C(=O)C(C)(C)C)C4)c3c2)cn1 [Compound 12e] here?
**A.** Its inhibition at 0.1 µM is 53%.

**Q.** With C[C@H](Nc1nc(N)nc(N)c1C#N)c1nc2cccc(F)c2c(=O)n1-c1cc(F)cc(F)c1 [Compound 3] as the molecule, how does the IC50 (PI3Kδ [2]; idelalisib-derived analogues) read?
**A.** The IC50 was 2.2 nM.

**Q.** For COc1ccc(-c2ccc3ncnc(O[C@H]4CCN(C(=O)OC(C)(C)C)C4)c3c2)cn1 [Compound 12a], which inhibition at 0.1 µM (PI3Kδ [1]) is on record?
**A.** Its inhibition at 0.1 µM is 79%.

**Q.** With COc1ccc(-c2ccc3ncnc(NC4CCN(C(=O)C5CC5)CC4)c3c2)cn1 [Compound 16b] as the molecule, how does the inhibition at 0.1 µM (PI3Kδ [1]) read?
**A.** Its inhibition at 0.1 µM is 70%.

**Q.** For COc1ncc(-c2ccc3ncnc(Nc4cccc(C(=O)N5CCOCC5)c4)c3c2)cc1C#N [Compound 8], which IC50 (PI3Kδ [2]; 4-anilinequinazoline) is on record?
**A.** The IC50 was 9.3 nM.

**Q.** With COc1ccc(-c2ccc3ncnc(N[C@H]4CCCN(C(=O)C5CCOCC5)C4)c3c2)cn1 [Compound 14e] as the molecule, how does the inhibition at 0.1 µM (PI3Kδ [1]) read?
**A.** Its inhibition at 0.1 µM is 88%.

**Q.** What about the IC50 (PI3Kδ [1]; read-out: PI3Kδ IC50) of the same molecule?
**A.** Its IC50 is 5.2 nM.

**Q.** Which IC50 (RPMI-8226) does the source give for O=C(CCCCCCC(=O)Nc1ccccc1)NO [SAHA, vorinostat, reference compound] here?
**A.** Its IC50 is 660 nM.

**Q.** Which inhibition at 0.1 µM (PI3Kδ [1]) does the source give for COc1ccc(-c2ccc3ncnc(NC4CCN(C(=O)C5CCOCC5)CC4)c3c2)cn1 [Compound 16c] here?
**A.** Its inhibition at 0.1 µM is 48%.

**Q.** Which inhibition at 0.1 µM (PI3Kδ [1]) does the source give for COc1ccc(-c2ccc3ncnc(NC4CCN(C(=O)OC(C)(C)C)CC4)c3c2)cn1 [Compound 16a] here?
**A.** Its inhibition at 0.1 µM is 72%.

**Q.** With COc1ccc(-c2ccc3ncnc(N[C@H]4CCCN(C(=O)C5CCCC5)C4)c3c2)cn1 [Compound 14d] as the molecule, how does the inhibition at 0.1 µM (PI3Kδ [1]) read?
**A.** The inhibition at 0.1 µM was 91%.

**Q.** What about the IC50 (PI3Kδ [1]; read-out: PI3Kδ IC50) of the same molecule?
**A.** Its IC50 is 8.7 nM.
